# Read-outs that look alike come from different tables or passages of the source.
# What was measured:
# [1] = test system: HER2 signaling pathway activity in viable breast cancer cells of non-overexpressed HER2 patients; test: CELx test of HER2 signaling pathway activity by CAS with perturbing and confirming agents (Example 7); format: cell-based, human; settings: for % Attenuation of NRG1 Signal: non-overexpressing HER2, HER2-driven disease, clinically relevant single concentration; for attenuation of the NRG1 and EGF driven activity, comparison in words: five patients of Table 17, single concentration
# Excerpt: Analyte and measurand: The analyte of the diagnostic test used herein is the cell attachment signal (CAS) that viable patient cells generate, alone or in the presence of specific cell signaling pathway perturbants, when placed in the well of an impedance biosensor microplate and continuously measured for electrical impedance. For every test, the CAS is continuously measured and used in the measurand algorithm for up to four portions of patient cell samples from the same patient. • 1. Patient cells only (C) • 2. Patient cells+perturbing pathway factor 1 (CF1) • 3. Patient cells+perturbing pathway factor 2 (CF2) (if necessary) • 4. Patient cells+perturbing pathway factor(s)+Confirming agent (CCF)
# The CAS is quantified for each of the up to four portions of patient samples tested (C, CF1, CF2, CCF). To quantify the signaling pathway activity of a patient's diseased cells, the CAS measured in the CF1 and/or CF2 portions is compared to the CAS measured in the C portion. This enables determination of the change in CAS between the CF and C sample portions relative to the change in CAS between the CCF and CF sample portions to confirm how much of the change between CF and C is related to the signaling pathway of interest.
# In using this confirming agent, the difference between the CAS of CF1 and/or CF2 and C can be correctly apportioned to HER2 participation. When this confirming agent is applied to cell samples before the perturbing agent, the perturbing agent is blocked from HER2-receptor-related activities thereby generating a CAS value for CCF below the CF1 and/CF2 CAS values by an amount proportional to the participation of the HER2 receptor in the CF1 and/or CF2 change relative to C.
# Standard media based on DMEM/F12 without serum, with antibiotics (e.g. penicillin, streptomycin, amphotericin), and HEPES buffer were purchased and used as delivered from VWR (Radnor, Pa.) or Life Technologies (Grand Island, N.Y.).
# The commercial-source cell lines were received on dry ice and cultured according to recommendation by the commercial provider. […] Prior to addition to the impedance microplate, the cells were removed from their growth container with trypsin/EDTA solution, counted, and re-suspended in media with antibiotics, without serum, or other growth factors.
# The test procedure used (hereinafter referred to as CELx) comprised the following steps, all performed in 5% CO2, 85% humidity, at 37° C.: • 1. Cell Seeding: 180 uL aliquots containing 15,000 viable epithelial cells from each patient or cell line in mammary epithelial growth media with antibiotics, without serum, or other growth factors were distributed to each designated well (C, CCF, CF1, CF2) of an impedance microplate. Impedance was continuously measured throughout steps 2-4 described below. • 2. Confirming agent (20 uL) was added six hours after seeding to pre-specified CCF wells for each cell sample. […] Perturbing Factors were added (20 uL) 18 hours after seeding to pre-specified CF wells for each sample. Wells not receiving perturbing factor received media as control. • 4. Continuous impedance recordings were made for each test well for each patient typically for at least 15 hours after the perturbing agents were added.
# [2] = test system: cancer patients (Patients B1, B2, B4, C1, C2); settings: cited from earlier work
# [3] = test system: cells from two breast cancer patients (Patients B1 and B2); test: CELx Anti-Proliferative test, impedance biosensor CReMS (Example 2); format: cell-based, human; settings: for responsiveness, CReM output (cell index) compared to control cells: continuous recording 48-72 hours
# Procedure: A CELx Anti-Proliferative test was performed using cells from two breast cancer patients (Patients B1 and B2) and the drug Paclitaxel. The physiologic change of the B land B2 cells during the test was measured with an impedance biosensor CReMS and the output from the CReMS is recorded in FIGS. 2A and 2B. The comparison of the CELx test results and the third party clinical reference is recorded in FIG. 2C.
# The CReMS, microplate, reagents, and buffers used in Example 1 are the same as those employed in Example 2, except for the therapeutic agent tested. In Example 2, the therapeutic agent, paclitaxel, was tested. Paclitaxel was purchased from Selleck Chemicals (TX, USA).
# Breast Cancer cells from Patients B1 and B2 were utilized and handled in the same manner as described in Example 1.
# Between 6,000-12,000 cells in each well were seeded onto the impedance microplate containing 120 uL settling media with serum. Forty microliters of the drug paclitaxel were added to one set each of the B1 and B2 cells; another control set of B1 and B2 cells received no drug. The CReMS recording of physiologic change was maintained continuously from when the cells were first seeded on the microplate through complete cellular response, which was between 48-72 hours. The test was performed at 37° C., 5% CO2 and at 75% relative humidity.
# [4] = test system: breast cancer patient cells; test: CELx Pathway Shutdown single drug tests, impedance biosensor CReMS (Example 4); format: cell-based, human; settings: one patient breast cancer cell sample expected to be a responder (FIG. 8B)
# Procedure: The physiologic change of the cells and drugs tested was measured with an impedance biosensor CReMS and the summary output from the CReMS is recorded in FIG. 4.
# In those experiments involving a combination of drugs, the procedures described in Example 3 were utilized. The list of patient cells and the drug tested with the cells is characterized in FIG. 4.
# [5] = test system: cells from two HER2 overexpressing breast cancer patients (Patient B1 and B4); test: CELx Pathway Shutdown test, impedance biosensor CReMS, EGF perturbation (Example 1); format: cell-based, human
# Excerpt: The change in impedance for a particular well is proportional to the number of cells and type of attachment the cells have with the impedance microplate. Changes in impedance indicate a response to perturbation of these small cell populations.
# Prior to addition to the impedance microplate, the cells were removed from their growth container with versene, counted, and re-suspended in media without serum or other growth factors.
# [6] = test system: BT474 breast cancer cell line cells; test: Cell attachment signal (CAS) diagnostic assay, impedance biosensor (Example 6); format: cell-based; settings: lapatinib with NRG1, fulvestrant with estradiol
# Procedure: (§1) The analyte of the diagnostic test used herein is the cell attachment signal (CAS) that viable patient cells generate, alone or in the presence of cell antagonists, when placed in the well of a microplate and analyzed with an impedance biosensor. For every test, the CAS is measured and analyzed for […] of patient cell samples. • 1) Patient cells only (C) • 2) Patient cells+pathway factor(s) (CF) • 3) Patient cells+pathway factor(s)+confirming agent (CCF)
# (§2) To detect whether the signaling pathway is functioning normally, the signaling pathway in a patient's diseased cells are perturbed and the resulting activity is compared to the effect the perturbant has on the signaling pathway activity of their healthy cells or the effect of perturbant on the signaling pathway activity of healthy cells from a patient or patients known to be free of disease. The assay measures the change in CAS between the CF and C cells in a patient's healthy cells relative to the change in CAS between the CF and C cells in the diseased cells. Alternatively, the assay can measure the change in CAS between the CF and the C cells in a patient's diseased cells that can be compared to a known result from a patient or pool of patients known to be free of disease. Essentially, if the signaling pathways are abnormal, the CAS change between the healthy and diseased cells will be different. The measurement of change in CAS between CF and CCF diseased cells from a subject provides confirmation that the CF CAS represents activity of the signaling pathway of interest. In the case where CCF is not changed relative to CF, this would indicate that the signaling pathway activity in CF represents some other signaling pathway activity that is not related to the condition of interest. In these cases, the patient would not be considered to have the disease being analyzed.
# (§3) Studies were performed confirming the ability of this cell analysis method to measure specific pathway activity in primary non-transformed malignant and healthy epithelial cells as well as cell lines. Representative data from these studies is shown in FIGS. 10 and 11 for two critical pathways involved in breast cancer, PI3K and ERα.
# [7] = test system: Patient 54 primary breast cancer cells; test: as above; format: cell-based, human; settings: Patient 54 primary tumor cells, lapatinib with NRG1, fulvestrant with estradiol
# Procedure: as §1, §2, §3
# [8] = test system: MAPK signaling pathway activity of cell sample C54; test: CAS measurement after culture in fresh or non-fresh base media (Example 8); format: cell-based
# Procedure: Many cell screening assays prescribe a simplified media-buffer that cells are placed in before and during the short time they are tested. The present invention with viable primary patient cells is performed with a base media used to maintain viable primary cell samples such that the cell population remains viable and retains its heterogeneity of individual cell types and a normal distribution of cells representing the different phases of the cell cycle during the complete test time of continuous measurement. […] A further aspect of the method includes replacing the base media with fresh base media within 72 hours of initiating contact with the perturbing or confirming agents.
# The data highlights the importance of culturing the cells in fresh base media before a cell sample is contacted with a perturbing or confirming agent.
molecule,measurement,setting,value
Pertuzumab,% Attenuation of NRG1 Signal,[1]; Patient R71,68%
same,% Attenuation of NRG1 Signal,[1]; Patient R160,95%
same,"attenuation of the NRG1 and EGF driven activity, comparison in words",[1],significant attenuation
same,"amount of pertuzumab inhibition of NRG1 driven activity, compared with SKBR3",[1]; non-overexpressed HER2 patient sample R39 versus overexpressed HER2 cell line SKBR3,greater
CC(=O)O[C@H]1C(=O)[C@@]2(C)[C@H]([C@H](OC(=O)c3ccccc3)[C@]3(O)C[C@H](OC(=O)[C@H](O)[C@@H](NC(=O)c4ccccc4)c4ccccc4)C(C)=C1C3(C)C)[C@]1(OC(C)=O)CO[C@@H]1C[C@@H]2O [Paclitaxel],responsiveness recorded by the third party clinical reference standard,[2]; Patient B1 (breast cancer),responsive
same,responsiveness recorded by the third party clinical reference standard,[2]; Patient B2 (breast cancer),responsive
same,CELx Anti-Proliferative test prediction of patient response,[3]; Patient B1,will respond
same,"responsiveness, CReM output (cell index) compared to control cells",[3]; Patient B1 cells,immediate and continuous responsiveness
same,CELx Anti-Proliferative test prediction of patient response,[3]; Patient B2,will respond
same,"time after which the CReM output reverses (test cells begin proliferating, no longer responsive)",[3]; Patient B2 cells,roughly 24 hours
same,"responsiveness, CReM output (cell index) compared to control cells",[3]; Patient B2 cells,initial responsiveness
COc1cc2ncnc(Nc3ccc(F)c(Cl)c3)c2cc1OCCCN1CCOCC1 [Gefitinib],response in the CReMS testing,[4],did not show a response
CS(=O)(=O)CCNCc1ccc(-c2ccc3ncnc(Nc4ccc(OCc5cccc(F)c5)c(Cl)c4)c3c2)o1 [Lapatinib],responsiveness recorded by the third party clinical reference standard,[2]; Patient B1 (breast cancer),responsive
same,responsiveness recorded by the third party clinical reference standard,[2]; Patient B4 (breast cancer),responsive
same,CELx Pathway Shutdown test prediction of patient response,[5]; Patient B1,will respond
same,CELx Pathway Shutdown test prediction of patient response,[5]; Patient B4,would respond
same,effect of the confirming agent on the CAS generated by the pathway factor,[6],reduces
same,effect of the confirming agent on the CAS generated by the pathway factor,[6]; listed as lapatinib,reduced
same,effect of the confirming agent on the CAS generated by the pathway factor,[7],reduces
same,effect of the confirming agent on the CAS generated by the pathway factor,[7]; listed as lapatinib,reduced
"EGF: human epidermal growth factor, perturbing agent of HER1-HER2 receptor pairings",signaling pathway activity (CAS) on perturbation,[8]; cell sample C54 cultured in fresh base media prior to contact,significant MAPK signaling pathway activity
same,signaling pathway activity (CAS) on perturbation,[8]; cell sample C54 cultured in non-fresh base media prior to perturbation,no signaling pathway activity
same,"% HER2 Participation, ((CF-C) − (CCF-C))/(CF-C))*100",[1]; Patient R112,25%
same,"Measurand (HER2 signal), ~(CF-C) − (CCF-C)",[1]; Patient R112,103
same,Total Ligand Signal (CF-C),[1]; Patient R112,398
same,"CAS (CCF), confirming factor + perturbing factor addition sample","[1]; Patient R112, HER2 participation confirming factor added before the perturbing ligand",337
CCOc1cc2ncc(C#N)c(Nc3ccc(OCc4ccccn4)c(Cl)c3)c2cc1NC(=O)/C=C/CN(C)C [Neratinib],% Attenuation of NRG1 Signal,[1]; Patient R20,104%
same,% Attenuation of NRG1 Signal,[1]; Patient R39,107%
same,% Attenuation of NRG1 Signal,[1]; Patient R71,100%
same,% Attenuation of NRG1 Signal,[1]; Patient R82,105%
same,% Attenuation of NRG1 Signal,[1]; Patient R160,118%
same,"attenuation of the NRG1 and EGF driven activity, comparison in words",[1],highest percentage attenuation
C[C@]12CC[C@@H]3c4ccc(O)cc4C[C@@H](CCCCCCCCC[S+]([O-])CCCC(F)(F)C(F)(F)F)[C@H]3[C@@H]1CC[C@@H]2O (stereo partly drawn) [fulvestrant],effect of the confirming agent on the CAS generated by the pathway factor,[6],reversed
same,effect of the confirming agent on the CAS generated by the pathway factor,[6]; listed as Fulvestrant,reduced
same,effect of the confirming agent on the CAS generated by the pathway factor,[7],reversed
same,effect of the confirming agent on the CAS generated by the pathway factor,[7]; listed as Fulvestrant,reduced

# — patent US20170343554A1, “METHODS OF MEASURING ERBB SIGNALING PATHWAY ACTIVITY TO DIAGNOSE AND TREAT CANCER PATIENTS” (Celcuity LLC, priority 2014, published 2017)
